For one data set, the target named is PPAR delta (Homo sapiens (Human), UniProt Q03181). The data set is described as follows: PPARδ activity screen: GAL4-PPARδ LBD transactivation luciferase reporter in CV-1 cells. The class given is cell-based. How it is done:
CV-1 cells were grown in DMEM+10% charcoal stripped FCS. Cells were seeded into 384-well plates the day before transfection to give a confluency of 50-80% at transfection. A total of […] containing 0.64 micrograms pCMX-PPARDelta LBD, 0.1 micrograms pCMXβGal, 0.08 micrograms pGLMH2004 reporter and 0.02 micrograms pCMX empty vector was transfected per well using FuGene transfection reagent according to the manufacturer's instructions (Roche). Cells were allowed to express protein for 48 h followed by addition of compound.
Human PPARδ was used to PCR amplify the PPARδ LBD. […] Ensuing fusions were verified by sequencing.
All compounds were dissolved in DMSO and diluted 1:1000 upon addition to the cells. Compounds were tested in quadruple in concentrations ranging from 0.001 to 100 μM. Cells were treated with compound for 24 h followed by luciferase assay. Each compound was tested in at least two separate experiments.
Medium including test compound was aspirated and washed with PBS. 50 μl PBS including 1 mM Mg++ and Ca++ were then added to each well. The luciferase assay was performed using the LucLite kit according to the manufacturer's instructions (Packard Instruments). Light emission was quantified by counting on a Perkin Elmer Envision reader. […] Beta-galactosidase assays were performed in the microwell plates using a kit from Promega and read in a Perkin Elmer Envision reader. The beta-galactosidase data were used to normalize (transfection efficiency, cell growth etc.) the luciferase data.
The activity of a compound is calculated as fold induction compared to an untreated sample. For each compound the efficacy (maximal activity) is given as a relative activity compared to GW501516, a PPARδ agonist. […] EC50 values were calculated via non-linear regression usingGraphPad PRISM (GraphPad Software, San Diego, Calif.).
In general terms: A reporter such as luciferase makes a cellular process visible.

Data set [1] in a line: Pharmacokinetic (PK) screening (i.v.) in male CD1 mice. As to conditions: for clearance: male, CD1, mouse, plasma, iv. The class given is in vivo, mouse. How it is done: In this example, the intravenous PK profile of several PPARδ agonists disclosed herein in male CD1 mice was determined. Similar methods can be used to analyze other compounds provided herein. All compounds were administered separately to CD1 mice at 1 mg/kg (i.v.), except the comparator compound to 2c was administered at 3 mg/kg (i.v.), as noted below.

Data set [2] has as its system Sprague-Dawley rat acute kidney injury. The data set can be described thus: Ischemia-reperfusion kidney injury in rats, plasma creatinine. The class given is in vivo. As to conditions: 30 mg/kg orally 4 hours after surgery, blood 24 hours after reperfusion, FIG. 11. How it is done: Sprague-Dawley male rats approximately 280-300 g, with ad libitum access to standard feed and water were used in these experiments. Rats were anesthetized with isoflurane and placed ventrally on a temperature controlled heated surgical platform. A skin incision was made on the dorsal surface, exposing both kidneys through flank incisions. Vascular clips were applied to both renal pedicles and occlusion lasted 45 minutes. After 45 min, the clips were removed, kidneys were monitored for successful reperfusion, and surgical sites were sutured. The sham group was subjected to similar surgical procedures, except that the occluding clamps were not applied. Four independent studies, testing each compound were performed. Compounds were formulated as a fresh daily suspension in 0.25% sodium carboxymethyl-cellulose, 0.25% Tween-80 in purified water. Compounds were dosed orally at 30 mg/kg 4 hours after animals awoke from surgery and sham surgery and IRI control animals were similarly dosed with vehicle.
Twenty-four (24) hours after reperfusion, blood was collected in K2 EDTA tubes by retro-orbital bleeding from all groups under mild isoflurane anesthesia. Plasma was separated by centrifugation at 3000 rpm for 10 minutes at 4° C. Plasma creatinine was analyzed using a fully automated clinical biochemistry analyzer (Siemens Dimension® Xpand® Plus Integrated Chemistry System)
Creatinine was tested for normal distribution in all groups via a D'Agostino-Pearson omnibus normality test and a Shapiro-Wilk normality test. Normally distributed data was subjected to an unpaired, two-tailed t test. Non-normally distributed data was subjected to a Mann-Whitney test (non-parametric). Statistical significance is determined by p<0.05 of IRI-vehicle compared to compound treated groups.

The mark [3] stands for this setting: CV-1 cells, 24 h compound treatment, luciferase, read-out: PPAR delta transactivation EC50.
Setting [4] is: 1 mg/kg, I.V. 1 mg/kg dose, read-out: CL.
The mark [5] stands for this setting: 1 mg/kg, I.V. 1 mg/kg dose, read-out: High or Low CL.

Read-outs that look alike come from different tables or passages of the source. A value given as a limit tells only on which side of the number the result lay.

PPAR delta, sequence (Q03181 128-441 limits assumed): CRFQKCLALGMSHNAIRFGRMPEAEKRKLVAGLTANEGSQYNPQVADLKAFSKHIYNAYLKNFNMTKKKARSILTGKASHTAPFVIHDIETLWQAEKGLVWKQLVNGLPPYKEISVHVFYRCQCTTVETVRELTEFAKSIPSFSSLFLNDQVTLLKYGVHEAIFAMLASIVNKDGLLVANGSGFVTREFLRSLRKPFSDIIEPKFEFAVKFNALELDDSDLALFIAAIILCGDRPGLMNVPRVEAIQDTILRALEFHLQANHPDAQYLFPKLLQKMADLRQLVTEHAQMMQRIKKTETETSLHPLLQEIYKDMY

Turning to `Cc1cnc(-c2ccc(F)cc2)n1Cc1ccccc1OCCC[C@@H](C)CC(=O)O` [Compound 2g, (R)-6-(2-((2-(4-fluorophenyl)-5-methyl-1H-imidazol-1-yl)methyl)phenoxy)-3-methylhexanoic acid], the EC50 at PPAR delta (setting [3]) was determined as 39 nM.
For `Cc1cnc(-c2ccc(-c3ccco3)cc2)n1Cc1ccccc1OCCCCCC(=O)O` [comparator compound to 2c, reference compound], the clearance in data set [1] (3 mg/kg, 3 mg/kg i.v. dose, read-out: CL) is 270 mL/min/kg; in data set [1] (3 mg/kg, 3 mg/kg i.v. dose, read-out: High or Low CL) it was above 85 mL/min/kg.
On to `Cc1cnc(-c2ccc(C(F)(F)F)nc2)n1Cc1ccccc1OCCCCCC(=O)O` [Comparator Compound 2, reference compound], for which the EC50 on PPAR delta (setting [3]) is 3.8 nM.
Take `Cc1cnc(-c2ccc(C(F)(F)F)cc2)n1Cc1cc(F)ccc1OCCC[C@@H](C)CC(=O)O` [Compound 2k, (R)-6-(4-fluoro-2-((5-methyl-2-(4-(trifluoromethyl)phenyl)-1H-imidazol-1-yl)methyl)phenoxy)-3-methylhexanoic acid]: the figures for the clearance in data set [1] (setting [4]) and in data set [1] (setting [5]) were 17 mL/min/kg and below 85 mL/min/kg, respectively. The EC50 on PPAR delta (setting [3]) was 6.6 nM.
The corresponding values for `Cc1cnc(-c2ccc(C(F)(F)F)cc2)n1Cc1ccccc1OCCCCC(C)(C)C(=O)O` [Compound 2q, 2,2-dimethyl-6-(2-((5-methyl-2-(4-(trifluoromethyl)phenyl)-1H-imidazol-1-yl)methyl)phenoxy)hexanoic acid] are 11 mL/min/kg, below 85 mL/min/kg and 14.3 nM.
On to `Cc1cnc(-c2ccc(C(F)F)cc2)n1Cc1ccccc1OCCC[C@@H](C)CC(=O)O` [Compound 2o, (R)-6-(2-((2-(4-(difluoromethyl)phenyl)-5-methyl-1H-imidazol-1-yl)methyl)phenoxy)-3-methylhexanoic acid], for which, at PPAR delta (setting [3]), the EC50 was determined as 9.9 nM.
Regarding `Cc1cnc(-c2ccc(-c3ccco3)cc2)n1Cc1ccccc1OCCC[C@@H](C)CC(=O)O` [Compound 2c, (R)-6-(2-((2-(4-(furan-2-yl)phenyl)-5-methyl-1H-imidazol-1-yl)methyl)phenoxy)-3-methylhexanoic acid], the clearance in data set [1] (setting [4]) is 73 mL/min/kg; in data set [1] (setting [5]), below 85 mL/min/kg. Besides, the EC50 on PPAR delta (setting [3]) stood at 3.7 nM.
As to `Cc1cnc(-c2ccc(OC(F)(F)F)cc2)n1Cc1ccccc1OCCCCCC(=O)O` [comparator compound to 2e, reference compound], the clearance is 185 mL/min/kg in data set [1] (setting [4]) and above 85 mL/min/kg in data set [1] (setting [5]).
As to `Cc1cnc(-c2ccc(C(F)(F)F)c(F)c2)n1Cc1ccccc1OCCCCC(C)(C)C(=O)O` [Compound 2h, 6-(2-((2-(3-fluoro-4-(trifluoromethyl)phenyl)-5-methyl-1H-imidazol-1-yl)methyl)phenoxy)-2,2-dimethylhexanoic acid], the clearance was 25 mL/min/kg in data set [1] (setting [4]) and below 85 mL/min/kg in data set [1] (setting [5]). Besides, at PPAR delta (setting [3]), the EC50 was 3.5 nM.
Regarding `Cc1cnc(-c2ccc(Cl)c(F)c2)n1Cc1ccccc1OCCCCC(C)(C)C(=O)O` [Compound 2i, 6-(2-((2-(4-chloro-3-fluorophenyl)-5-methyl-1H-imidazol-1-yl)methyl)-phenoxy)-2,2-dimethylhexanoic acid], the EC50 at PPAR delta (setting [3]) stood at 18.8 nM.
For `Cc1cnc(-c2ccc(C(F)(F)F)nc2)n1Cc1ccccc1OCCC[C@@H](C)CC(=O)O` [Compound 2n, (R)-3-methyl-6-(2-((5-methyl-2-(6-(trifluoromethyl)pyridin-3-yl)-1H-imidazol-1-yl)methyl)phenoxy)hexanoic acid], the clearance in data set [1] (setting [4]) was 62 mL/min/kg; in data set [1] (setting [5]) it was below 85 mL/min/kg. The Plasma creatinine result in data set [2] is “reduce plasma creatinine”.
`Cc1cnc(-c2ccc(C(F)(F)F)cc2)n1Cc1ccccc1OCCCCCC(=O)O` [comparator compound to 2d, reference compound]: the “CL / exposure after i.v. dose (result in words)” value in data set [1] (I.V. 1 mg/kg dose) is “Due to low exposure data could not be measured”.
Turning to `C/C(=C\COc1ccccc1Cn1c(C)cnc1-c1ccc(OC(F)(F)F)cc1)CCC(=O)O` [Compound 2e, (E)-4-methyl-6-(2-((5-methyl-2-(4-(trifluoromethoxy)phenyl)-1H-imidazol-1-yl)methyl)phenoxy)hex-4-enoic acid], the clearance in data set [1] (setting [4]) was 70 mL/min/kg; in data set [1] (setting [5]), below 85 mL/min/kg. Further, at PPAR delta (setting [3]), the EC50 was found to be 0.2 nM.
As to `CSc1ccc(-c2ncc(C)n2Cc2ccccc2OCCC[C@@H](C)CC(=O)O)cc1` [Compound 2p, (R)-3-methyl-6-(2-((5-methyl-2-(4-(methylthio)phenyl)-1H-imidazol-1-yl)methyl)phenoxy)hexanoic acid], the EC50 on PPAR delta (setting [3]) was determined as 13.1 nM.
The same measure, in the same setting: the figure for `Cc1cnc(-c2ccc(C(F)(F)F)cc2)n1Cc1ccccc1OCCCCCC(=O)O` [Comparator Compound 1, reference compound] is 0.1 nM.
Regarding `Cc1cnc(-c2ccc(C(F)(F)F)nc2)n1Cc1ccccc1OCCCCCC(=O)O` [comparator compound to 2n, reference compound], the “CL / exposure after i.v. dose (result in words)” value in data set [1] (I.V. 1 mg/kg dose) is recorded as “Due to low exposure data could not be measured”.
Take `Cc1cnc(-c2ccc(Cl)cc2)n1Cc1ccccc1OCCC[C@@H](C)CC(=O)O` [Compound 2b, (R)-6-(2-((2-(4-chlorophenyl)-5-methyl-1H-imidazol-1-yl)methyl)phenoxy)-3-methylhexanoic acid]: the clearance in data set [1] (setting [4]) is 22 mL/min/kg; in data set [1] (setting [5]), below 85 mL/min/kg. The same molecule came in with an EC50 at PPAR delta of 7.8 nM.
Turning to `Cc1cnc(-c2ccc(Cl)c(F)c2)n1Cc1ccccc1OCCC[C@@H](C)CC(=O)O` [Compound 2j, (R)-6-(2-((2-(4-chloro-3-fluorophenyl)-5-methyl-1H-imidazol-1-yl)methyl)phenoxy)-3-methylhexanoic acid], the clearance in data set [1] (setting [4]) is 38 mL/min/kg; in data set [1] (setting [5]), below 85 mL/min/kg. At PPAR delta (setting [3]), the EC50 worked out at 0.8 nM.
As to `Cc1cnc(-c2ccc(OC(F)(F)F)cc2)n1Cc1ccccc1OCCC[C@@H](C)CC(=O)O` [Compound 2a, (R)-3-methyl-6-(2-((5-methyl-2-(4-(trifluoromethoxy)phenyl)-1H-imidazol-1-yl)methyl)phenoxy)hexanoic acid], the clearance in data set [1] (setting [4]) was 33 mL/min/kg; in data set [1] (setting [5]), below 85 mL/min/kg. For the same molecule, the Plasma creatinine result in data set [2] is “reduce plasma creatinine”. The same molecule registered an EC50 on PPAR delta of 1 nM.
As for `Cc1ccc(-c2ncc(C)n2Cc2ccccc2OCCC[C@@H](C)CC(=O)O)cc1` [Compound 2f, (R)-3-methyl-6-(2-((5-methyl-2-(p-tolyl)-1H-imidazol-1-yl)methyl)phenoxy) hexanoic acid], the EC50 on PPAR delta was found to be 24.3 nM.
Take `Cc1cnc(-c2ccc(OC(F)F)cc2)n1Cc1ccccc1OCCC[C@@H](C)CC(=O)O` [Compound 2l, (R)-6-(2-((2-(4-(difluoromethoxy)phenyl)-5-methyl-1H-imidazol-1-yl)methyl)phenoxy)-3-methylhexanoic acid]: the EC50 at PPAR delta (setting [3]) stood at 13.5 nM.
Take `Cc1ccc(OCCC[C@@H](C)CC(=O)O)c(Cn2c(C)cnc2-c2ccc(OC(F)(F)F)cc2)c1` [Compound 2m, (R)-3-methyl-6-(4-methyl-2-((5-methyl-2-(4-(trifluoromethoxy)phenyl)-1H-imidazol-1-yl)methyl)phenoxy)hexanoic acid]: the values for the clearance in data set [1] (setting [4]) and in data set [1] (setting [5]) were 85 mL/min/kg and below 85 mL/min/kg, respectively. Moreover, the EC50 at PPAR delta (setting [3]) came to 0.5 nM.

The record behind these values is patent publication US10399958B2, “PPAR agonists, compounds, pharmaceutical compositions, and methods of use thereof” (Mitobridge, Inc., priority 2015, dated 2019).
